Data taken from ChEMBL document CHEMBL1201862, “PubChem BioAssay data set” (2004).
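Values below derive from 48-hour exposures of cells grown in 96-well plates, with endpoints linearly interpolated between the two concentrations bracketing the appropriate inhibition level. GI50 marks 50% less growth.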 Activity calls are given as the source filed them. Cut-off read from the data, not from the text of the source: active = GI50 up to about 1.1 µM and inactive = higher.

Key:
Assay in all cases: NCI-60 cell line screen, 48 h
NCI-H522 = system: NCI-H522
SNB-75 = system: SNB-75
DMS-273 = system: DMS-273
EKVX = system: EKVX
SF-539 = system: SF-539
LOX IMVI = system: LOX IMVI
OVCAR-5 = system: OVCAR-5
SK-MEL-28 = system: SK-MEL-28
HOP-18 = system: HOP-18
NCI-H460 = system: NCI-H460
SK-OV-3 = system: SK-OV-3
NCI/ADR-RES = system: NCI/ADR-RES
NCI-H23 = system: NCI-H23
IGROV-1 = system: IGROV-1
M19-MEL = system: M19-MEL
KM12 = system: KM12
MOLT-4 = system: MOLT-4
HCT-15 = system: HCT-15
SR = system: SR
M14 = system: M14

SMILES	GI50 (NCI-H522)	GI50 (SNB-75)	GI50 (DMS-273)	GI50 (EKVX)	GI50 (SF-539)	GI50 (LOX IMVI)	GI50 (OVCAR-5)	GI50 (SK-MEL-28)	GI50 (HOP-18)	GI50 (NCI-H460)	GI50 (SK-OV-3)	GI50 (NCI/ADR-RES)	GI50 (NCI-H23)	GI50 (IGROV-1)	GI50 (M19-MEL)	GI50 (KM12)	GI50 (MOLT-4)	GI50 (HCT-15)	GI50 (SR)	GI50 (M14)
Cc1cc(C)c(C2=NO[C@@H]3[C@H]2C(=O)C=C2N(Cc4ccccc4)CCO[C@@]23O)c(C)c1	> 100 µM (inactive)	> 94.2 µM (inactive)	> 100 µM (inactive)	> 100 µM (inactive)	> 100 µM (inactive)	> 100 µM (inactive)	> 100 µM (inactive)	> 100 µM (inactive)	> 100 µM (inactive)	> 100 µM (inactive)	> 100 µM (inactive)	> 100 µM (inactive)	> 100 µM (inactive)	> 100 µM (inactive)	> 100 µM (inactive)	> 100 µM (inactive)	> 100 µM (inactive)	> 100 µM		
O=C(Nc1ccc(F)cc1)C(=O)C(C(=O)c1ccccc1F)C1OC(=O)c2ccccc21 (stereo not given)	15 µM (inactive)	43.7 µM (inactive)	43.3 µM (inactive)	68.4 µM (inactive)	31 µM (inactive)	35.6 µM (inactive)	> 100 µM (inactive)	87.3 µM (inactive)		47 µM (inactive)	66.5 µM (inactive)		> 100 µM (inactive)	> 100 µM (inactive)		79.4 µM (inactive)	14.9 µM (inactive)	23.6 µM	19.8 µM (inactive)	> 100 µM (inactive)
CN(C)CCNC(=O)c1ccc(Cl)c2ccc(-c3ccccc3)nc12	3.89 µM (inactive)	3.57 µM (inactive)	3 µM (inactive)		3.66 µM (inactive)	2.34 µM (inactive)	3.49 µM (inactive)	4.27 µM (inactive)	3.26 µM (inactive)	2.07 µM (inactive)	4.7 µM (inactive)	2.42 µM (inactive)	5.38 µM (inactive)	3.48 µM (inactive)	3.69 µM (inactive)	4.47 µM (inactive)	1.82 µM (inactive)	3.42 µM		
Clc1ccc(N/N=C(\c2ccccc2)c2ccccn2)nc1	< 0.01 µM (active)	0.316 µM (active)		< 0.01 µM (active)	0.622 µM (active)		0.895 µM (active)	2.67 µM (inactive)			0.282 µM (active)	< 0.0165 µM (active)	0.0526 µM (active)	0.0239 µM (active)		0.348 µM (active)	< 0.01 µM (active)	< 0.0183 µM	0.114 µM (active)	< 0.01 µM (active)
COCC1N=C(c2cc(OC)c(OC)c(OC)c2-c2cc3c(cc2[C@@H](C)O)OCO3)O[C@H]1c1ccccc1 (stereo not given in full)	36.2 µM (inactive)	25.9 µM (inactive)	> 71.9 µM (inactive)	36.8 µM (inactive)	77.4 µM (inactive)	> 100 µM (inactive)	> 73.8 µM (inactive)	> 68.4 µM (inactive)	> 86.5 µM (inactive)	> 71.8 µM (inactive)	97.5 µM (inactive)	40.2 µM (inactive)	51.6 µM (inactive)	> 68.9 µM (inactive)	> 90.8 µM (inactive)	> 100 µM (inactive)	> 100 µM (inactive)	> 100 µM		
CCOCc1cc(=O)c2c(O)cc3c(c2o1)CCC(C)(C)O3	> 100 µM (inactive)	> 100 µM (inactive)	> 100 µM (inactive)	> 100 µM (inactive)	> 100 µM (inactive)	> 100 µM (inactive)		> 100 µM (inactive)	> 100 µM (inactive)	> 100 µM (inactive)	> 100 µM (inactive)		> 100 µM (inactive)	> 100 µM (inactive)	> 100 µM (inactive)		> 100 µM (inactive)	> 100 µM		> 100 µM (inactive)
CCOC(=O)C(Cc1c(-c2[nH]c3ccccc3c2CC(NC(=O)CNC(C)=O)C(=O)OCC)[nH]c2ccccc12)NC(=O)CNC(C)=O (stereo not given)	27.9 µM (inactive)	22.1 µM (inactive)		> 100 µM (inactive)			> 100 µM (inactive)	45.4 µM (inactive)		> 100 µM (inactive)	> 100 µM (inactive)		> 100 µM (inactive)	> 100 µM (inactive)		> 100 µM (inactive)	53.2 µM (inactive)	> 100 µM	40.4 µM (inactive)	71.6 µM (inactive)
